In US20090030068A1, “Antitumour Compounds” (PHARMA MAR, S.A., priority 2005, published 2009):
In brackets after ≈: the same amount, converted by molar mass.

Experiments:
[1] = tested on: A549; test: SRB colorimetric cell growth inhibition assay, A549; assay type: cell-based
Method: (§1) The assays of antitumor activity allow detecting extracts or compounds with cytotoxic activity (cell death) or cytostatic activity (growth inhibition) in in vitro cultures of tumor cells of human origin.
(§2) The quantification of cell growth in vitro was carried out by means of a calorimetric assay with sulforhodamine B (SRB) (following an adaptation of the previously described method by Philip Skehan et al. 1990, J. Natl. Cancer Inst., 82:1107-1112).
(§3) This type of assay uses 96-well culture microplates, (Mosmann, 1983, Faircloth, 1988). Most of the cell lines used are obtained from the American Type Culture Collection (ATCC) and derived from different types of human tumors.
(§4) The cell cultures are maintained in DMEM culture medium (supplemented with 10% fetal bovine serum (FBS), 1% penicillin/streptomycin 1% glutamine) at 37° C., 5% CO2 and 98% humidity.
(§5) For the assays, the cells are trypsinized and seeded in 96-well microplates at different concentrations depending on the cell line, and are incubated for 24 hours in an active ingredient-free medium for their stabilization. The cultures are then treated (final concentration varies depending on the type of assay) with carrier (DMSO:DMEM, 1:1) or active ingredient. After 48 hours of exposure to the active ingredient, the antitumor effect is measured by means of the previously mentioned SRB method, which basically consists of: fixing the cells with a 1% glutaraldehyde solution (30 min, RT), washing of the fixer in PBS (3 washings, RT), staining the cultures with a 0.4% SRB solution (30 min, RT), washing of the colorant in 1% acetic acid solution (3 washings, RT), air-drying the plates and final extraction of the colorant with Tris buffer. The quantification of the assay is carried out by means of optical density reading of the plates in a spectrophotometric microplate reader at a single wavelength of 490 nm. […]

[2] = tested on: HT29; test: SRB colorimetric cell growth inhibition assay, HT29; assay type: cell-based
Method: as §1, §2, §3, §4, §5

[3] = tested on: MDA-MB-231; test: SRB colorimetric cell growth inhibition assay, MDA-MB-231; assay type: cell-based
Method: as §1, §2, §3, §4, §5

[4] = tested on: P388 cancer cells; conditions: cited from earlier work
[5] = tested on: HCT-8 cancer cells; conditions: cited from earlier work
[6] = tested on: L1210 cells; conditions: cited from earlier work
[7] = tested on: MDA-MB-231 cancer cells; conditions: cited from earlier work
[8] = tested on: P388 leukemia; conditions: cited from earlier work; for antitumor activity / toxicity: P388 leukemia in CDF1 mice
[9] = tested on: A549 cancer cells; conditions: cited from earlier work
[10] = tested on: KB cells; conditions: cited from earlier work

Compound: COC1CC(C)OC(CCC(C)C(O)C(C)C2OC(=O)/C=C/C(C)=C/CC(O)CC3C=CCC(CC(OC)C(C)C(O)CC(O)C(C)C(C(C)C(O)C(C)CCC4CC(OC)CC(C)O4)OC(=O)/C(C)=C/CC(O)CC4C=CCC(CC(OC)C(C)C(O)CC(O)C2C)O4)O3)C1 (stereo not shown) [Compound A]
- CC50 ([1]; Homo sapiens, A549, 48 h, read-out: LC50): 529 nM
- GI50 ([1]; Homo sapiens, NSCL (Lung) A549, 48 hours of exposure, concentration causing 50% growth inhibition): 228 nM
- TGI ([1]; NSCL (Lung) A549, 48 hours of exposure, concentration causing total growth inhibition): 3.38E−7 Molar
- TGI ([2]; Colon HT29, 48 hours of exposure, concentration causing total growth inhibition): 8.81E−7 Molar
- LC50 (concentration killing 50% of cells) ([2]; Homo sapiens, HT-29, 48 h, read-out: LC50): 2200 nM
- GI50 ([2]; Homo sapiens, HT-29, Colon HT29, 48 hours of exposure, concentration causing 50% growth inhibition): 338 nM
- TGI ([3]; Breast MDA-MB-231, 48 hours of exposure, concentration causing total growth inhibition): 2.35E−6 Molar
- CC50 ([3]; Homo sapiens, MDA-MB-231, 48 h, read-out: LC50): 4770 nM
- GI50 ([3]; Homo sapiens, Breast MDA-MB-231, 48 hours of exposure, concentration causing 50% growth inhibition): 808 nM

Compound: CO[C@H]1C[C@H](CC[C@H](C)[C@H](O)[C@H](C)[C@H]2OC(=O)/C(C)=C/C[C@H](O)C[C@@H]3C=CC[C@@H](C[C@H](OC)[C@@H](C)[C@@H](O)C[C@@H](O)[C@H](C)[C@@H]([C@@H](C)[C@@H](O)[C@@H](C)CC[C@H]4C[C@H](OC)C[C@H](C)O4)OC(=O)/C(C)=C/C[C@H](O)C[C@@H]4C=CC[C@@H](C[C@H](OC)[C@@H](C)[C@@H](O)C[C@@H](O)[C@@H]2C)O4)O3)O[C@@H](C)C1 [Misakinolide A]
- in vitro antitumor activity [4]: in vitro antitumor activity
- in vitro antitumor activity [5]: in vitro antitumor activity
- IC50 (cytotoxicity) [6]: 0.035 µg/mL (≈ 0.0262 µM)
- in vitro antitumor activity [7]: in vitro antitumor activity
- T/C ([8]; dose of 0.1 mg/kg (mouse), P388 leukemia): 140%
- in vitro antitumor activity [9]: in vitro antitumor activity

Compound: CO[C@H]1C[C@H](CC[C@H](C)[C@H](O)[C@H](C)[C@H]2OC(=O)/C=C/C(C)=C/C[C@H](O)C[C@@H]3C=CC[C@@H](C[C@H](OC)[C@@H](C)[C@@H](O)C[C@@H](O)[C@H](C)[C@@H]([C@@H](C)[C@@H](O)[C@@H](C)CC[C@H]4C[C@H](OC)C[C@H](C)O4)OC(=O)/C=C/C(C)=C/C[C@H](O)C[C@@H]4C=CC[C@@H](C[C@H](OC)[C@@H](C)[C@@H](O)C[C@@H](O)[C@@H]2C)O4)O3)O[C@@H](C)C1 [Swinholide A]
- IC50 (cytotoxicity) [6]: 0.03 µg/mL (≈ 0.0216 µM)
- antitumor activity [8]: did not show promising antitumor activity
- toxicity [8]: toxic
- IC50 (cytotoxicity) [10]: 0.04 µg/mL (≈ 0.0288 µM)

Compound: COC1CC(C)OC(CCC(C)C(O)C(C)C2OC(=O)/C=C\C(C)=C\CC(O)CC3C=CCC(CC(OC)C(C)C(O)CC(O)C(C)C(C(C)C(O)C(C)CCC4CC(O)CC(C)O4)OC(=O)/C=C\C(C)=C\CC(O)CC4C=CCC(CC(OC)C(C)C(O)CC(O)C2C)O4)O3)C1 (stereo not shown) [Swinholide C]
- IC50 (cytotoxicity) [6]: 0.14 µg/mL (≈ 0.102 µM)
- IC50 (cytotoxicity) [10]: 0.05 µg/mL (≈ 0.0363 µM)

Compound: isoswinholide A
- IC50 (cytotoxicity) [6]: 1.35 µg/mL
- antitumor activity [8]: did not show promising antitumor activity
- toxicity [8]: toxic
- IC50 (cytotoxicity) [10]: 1.1 µg/mL
